Experimental data taken from patent US9145399B2, “Substituted bicyclic triazole derivatives as gamma secretase modulators” (Janssen Pharmaceuticals, Inc., priority 2010, dated 2015).
Where a name gives a salt, the structure may show the parent alone.

Key:
Aβtotal = assay: Screening for γ-secretase-modulating activity in SKNBE2 cells carrying APP 695 wild type: Aβtotal in cell supernatant (Alphalisa); type: cell-based; conditions: overnight incubation
Experimental: (§1) Pharmacology A) Screening of the Compounds of the Invention for γ-Secretase-Modulating Activity
(§2) Screening was carried out using SKNBE2 cells carrying the APP 695—wild type, grown in Dulbecco's Modified Eagle's Medium/Nutrient mixture F-12 (DMEM/NUT-mix F-12) (HAM) provided by Invitrogen (cat no. 10371-029) containing 5% Serum/Fe supplemented with 1% non-essential amino acids, 1-glutamine 2 mM, Hepes 15 mM, penicillin 50 U/ml (units/ml) en streptomycin 50 μg/ml. Cells were grown to near confluency.
(§3) The screening was performed using a modification of the assay as described in Citron et al (1997) Nature Medicine 3: 67. Briefly, cells were plated in a 384-well plate at 10^4 cells/well in Ultraculture (Lonza, BE12-725F) supplemented with 1% glutamine (Invitrogen, 25030-024), 1% non-essential amino acid (NEAA), penicillin 50 U/ml en streptomycin 50 μg/ml in the presence of test compound at different test concentrations. The cell/compound mixture was incubated overnight at 37° C., 5% CO2. The next day the media were assayed by two sandwich immuno-assays, for Aβ42 and Aβtotal.
(§4) Aβtotal and Aβ42 concentrations were quantified in the cell supernatant using the Aphalisa technology (Perkin Elmer). Alphalisa is a sandwich assay using biotinylated antibody attached to streptavidin coated donorbeads and antibody conjugated to acceptor beads. In the presence of antigen, the beads come into close proximity. The excitation of the donor beads provokes the release of singlet oxygen molecules that trigger a cascade of energy transfer in the acceptor beads, resulting in light emission. To quantify the amount of Aβ42 in the cell supernatant, monoclonal antibody specific to the C-terminus of Aβ42 (JRF/cAβ42/26) was coupled to the receptor beads and biotinylated antibody specific to the N-terminus of Aβ (JRF/AβN/25) was used to react with the donor beads. T quantify the amount of Aβtotal in the cell supernatant, monoclonal antibody specific to the N-terminus of Aβ (JRF/AβN/25) was coupled to the receptor beads and biotinylated antibody specific to the mid region of Aβ (biotinylated 4G8) was used to react with the donor beads.
(§5) To obtain the values reported in Table 3, the data are calculated as percentage of the maximum amount of amyloid Beta 42 measured in the absence of the test compound. The sigmoidal dose response curves were analyzed using non-linear regression analysis with percentage of the control plotted against the log concentration of the compound. A 4-parameter equation was used to determine the IC50.

Aβ42 = assay: Screening for γ-secretase-modulating activity in SKNBE2 cells carrying APP 695 wild type: Aβ42 in cell supernatant (Alphalisa); type: cell-based; conditions: overnight incubation
Experimental: as §1, §2, §3, §4, §5

[1] = Homo sapiens, SKNBE2, SKNBE2 cells carrying APP 695 wild type
[2] = SKNBE2 cells carrying APP 695 wild type

Row | IC50 (Aβtotal; Homo sapiens) | IC50 (Aβ42; [1]) | IC50 (Aβtotal) | IC50 (Aβ42; [2]) | SMILES
1 | > 10 µM | 0.022 µM | – | – | COc1cc(Nc2nc3c(-c4ccc(F)cc4C(F)(F)F)cccn3n2)ccc1-n1cnc(C)n1 [Compound 4, 8-[4-fluoro-2-(trifluoromethyl)phenyl]-N-[3-methoxy-4-(3-methyl-1H-1,2,4-triazol-1-yl)phenyl]-[1,2,4]triazolo[1,5-a]pyridin-2-amine]
2 | > 10 µM | 0.018 µM | – | – | COc1cc(Nc2nc3n(n2)CCCC3c2ccc(F)cc2)ccc1-n1cnc(C)c1 (stereo not drawn) [Compound 5, 8-(4-fluorophenyl)-5,6,7,8-tetrahydro-N-[3-methoxy-4-(4-methyl-1H-imidazol-1-yl)phenyl]-[1,2,4]triazolo[1,5-a]pyridin-2-amine]
3 | > 10 µM | 0.009 µM | – | – | COc1cc(Nc2nc3c(-c4ccc(F)cc4C)nccn3n2)ccc1-n1cnc(C)c1 [Compound 10, 8-(4-fluoro-2-methylphenyl)-N-[3-methoxy-4-(4-methyl-1H-imidazol-1-yl)phenyl]-[1,2,4]triazolo[1,5-a]pyrazin-2-amine]
4 | > 10 µM | 0.363 µM | – | – | COc1nc(Nc2nc3n(n2)CCCC3c2ccc(F)cc2)ccc1-c1ccnc(C)c1 (stereo not drawn) [Compound 16, 8-(4-fluorophenyl)-5,6,7,8-tetrahydro-N-(2-methoxy-2′-methyl[3,4′-bipyridin]-6-yl)-[1,2,4]triazolo[1,5-a]pyridin-2-amine]
5 | > 10 µM | 0.295 µM | – | – | COc1nc(Nc2nc3n(n2)CCCC3c2ccccc2C(F)(F)F)ccc1-n1cnc(C)c1 (stereo not drawn) [Compound 17, 5,6,7,8-tetrahydro-N-[6-methoxy-5-(4-methyl-1H-imidazol-1-yl)-2-pyridinyl]-8-[2-(trifluoromethyl)phenyl]-[1,2,4]triazolo[1,5-a]pyridin-2-amine]
6 | > 10 µM | 0.112 µM | – | – | COc1nc(Nc2nc3n(n2)CCCC3c2ccccc2Cl)ccc1-n1cnc(C)c1 (stereo not drawn) [Compound 18, 8-(2-chlorophenyl)-5,6,7,8-tetrahydro-N-[6-methoxy-5-(4-methyl-1H-imidazol-1-yl)-2-pyridinyl]-[1,2,4]triazolo[1,5-a]pyridin-2-amine]
7 | 3.72 µM | 0.004 µM | – | – | COc1cc(Nc2nc3c(-c4ccc(F)cc4C)cccn3n2)ccc1-n1cnc(C)c1 [Compound 19, 8-(4-fluoro-2-methylphenyl)-N-[3-methoxy-4-(4-methyl-1H-imidazol-1-yl)phenyl]-[1,2,4]triazolo[1,5-a]pyridin-2-amine]
8 | > 10 µM | 0.115 µM | – | – | COc1cc(Nc2nc3cc(-c4ccccc4C(F)(F)F)ccn3n2)ccc1-n1cnc(C)c1 [Compound 21, N-[3-methoxy-4-(4-methyl-1H-imidazol-1-yl)phenyl]-7-[2-(trifluoromethyl)phenyl]-[1,2,4]triazolo[1,5-a]pyridin-2-amine]
9 | > 10 µM | 0.126 µM | – | – | Cc1ncoc1-c1ccc(Nc2nc3c(-c4ccccc4C(F)(F)F)cccn3n2)cc1 [Compound 24, N-[4-(4-methyl-5-oxazolyl)phenyl]-8-[2-(trifluoromethyl)phenyl]-[1,2,4]triazolo[1,5-a]pyridin-2-amine]
10 | 8.51 µM | 0.014 µM | – | – | COc1cc(Nc2nc3n(n2)CCCC3c2ccccc2Cl)ccc1-n1cnc(C)c1 (stereo not drawn) [Compound 27, 8-(2-chlorophenyl)-5,6,7,8-tetrahydro-N-[3-methoxy-4-(4-methyl-1H-imidazol-1-yl)phenyl]-[1,2,4]triazolo[1,5-a]pyridin-2-amine]
11 | > 10 µM | 4.47 µM | – | – | COc1cc(N(C)c2nc3n(n2)CCCC3c2ccccc2C(F)(F)F)ccc1-n1cnc(C)c1 (stereo not drawn) [Compound 33, 5,6,7,8-tetrahydro-N-[3-methoxy-4-(4-methyl-1H-imidazol-1-yl)phenyl]-N-methyl-8-[2-(trifluoromethyl)phenyl]-[1,2,4]triazolo[1,5-a]pyridin-2-amine HCl]
12 | – | – | > 10 µM | 0.031 µM | COc1cccc(C2CCCn3nc(Nc4ccc(-n5cnc(C)c5)c(OC)c4)nc32)c1 (stereo not drawn) [Compound 35, 5,6,7,8-tetrahydro-N-[3-methoxy-4-(4-methyl-1H-imidazol-1-yl)phenyl]-8-(3-methoxyphenyl)-[1,2,4]triazolo[1,5-a]pyridin-2-amine.2HCl.H2O]
13 | > 10 µM | 0.501 µM | – | – | COc1cc(C(=O)Nc2nc3n(n2)CCCC3c2ccc(F)cc2)ccc1-n1cnc(C)c1 (stereo not drawn) [Compound 36, N-[8-(4-fluorophenyl)-5,6,7,8-tetrahydro[1,2,4]triazolo[1,5-a]pyridin-2-yl]-3-methoxy-4-(4-methyl-1H-imidazol-1-yl)-benzamide]
14 | – | – | > 10 µM | 0.039 µM | COc1cccc(C2CCCn3nc(Nc4ccc(-c5ccnc(C)c5)c(OC)c4)nc32)c1 (stereo not drawn) [Compound 40, 5,6,7,8-tetrahydro-N-[3-methoxy-4-(2-methyl-4-pyridinyl)phenyl]-8-(3-methoxyphenyl)-[1,2,4]triazolo[1,5-a]pyridin-2-amine.1.8 HCl.0.9H2O]
15 | > 10 µM | 0.145 µM | – | – | Cc1cc(-c2ccc(Nc3nc4n(n3)CCCC4c3ccccc3C(F)(F)F)cc2)c(C)cn1 (stereo not drawn) [Compound 45, N-[4-(2,5-dimethyl-4-pyridinyl)phenyl]-5,6,7,8-tetrahydro-8-[2-(trifluoromethyl)phenyl]-[1,2,4]triazolo[1,5-a]pyridin-2-amine]
16 | > 10 µM | 0.062 µM | – | – | COc1cc(Nc2nc3n(n2)CCC(c2ccccc2C(F)(F)F)C3)ccc1-n1cnc(C)c1 (stereo not drawn) [Compound 51, 5,6,7,8-tetrahydro-N-[3-methoxy-4-(4-methyl-1H-imidazol-1-yl)phenyl]-7-[2-(trifluoromethyl)phenyl]-[1,2,4]triazolo[1,5-a]pyridin-2-amine]
17 | > 10 µM | 0.123 µM | – | – | COc1cc(Nc2nc3n(n2)CCC(c2ccccc2C(F)(F)F)C3)ccc1-c1ccnc(C)c1 (stereo not drawn) [Compound 62, 5,6,7,8-tetrahydro-N-[3-methoxy-4-(2-methyl-4-pyridinyl)phenyl]-7-[2-(trifluoromethyl)phenyl]-[1,2,4]triazolo[1,5-a]pyridin-2-amine HCl]
18 | 8.13 µM | 0.019 µM | – | – | COc1cc(Nc2nc3c(-c4cc(C(F)(F)F)ccc4F)cccn3n2)ccc1-n1cnc(C)c1 [Compound 63, 8-[2-fluoro-5-(trifluoromethyl)phenyl]-N-[3-methoxy-4-(4-methyl-1H-imidazol-1-yl)phenyl]-[1,2,4]triazolo[1,5-a]pyridin-2-amine]
19 | 4.57 µM | 0.023 µM | – | – | COc1cc(NC(=O)c2nc3c(-c4ccccc4Cl)cccn3n2)ccc1-n1cnc(C)c1 [Compound 72, 8-(2-chlorophenyl)-N-[3-methoxy-4-(4-methyl-1H-imidazol-1-yl)phenyl]-[1,2,4]triazolo[1,5-a]pyridine-2-carboxamide]
20 | 7.41 µM | 0.015 µM | – | – | COc1cc(Nc2nc3c(-c4ccc(F)cc4)c(C)ccn3n2)ccc1-c1ccnc(C)c1 [Compound 74, 8-(4-fluorophenyl)-N-[3-methoxy-4-(2-methyl-4-pyridinyl)phenyl]-7-methyl-[1,2,4]triazolo[1,5-a]pyridin-2-amine]
21 | > 10 µM | 0.044 µM | – | – | Cc1cc(-c2ccc(Nc3nc4n(n3)CCOC4c3ccccc3C(F)(F)F)cc2)ccn1 (stereo not drawn) [Compound 85, 5,6-dihydro-N-[4-(2-methyl-4-pyridinyl)phenyl]-8-[2-(trifluoromethyl)phenyl]-8H-[1,2,4]triazolo[5,1-c][1,4]oxazin-2-amine]
22 | > 10 µM | 0.048 µM | – | – | Cc1cc(-c2ccc(Nc3nc4n(n3)CCOC4c3ccccc3C(F)(F)F)cc2F)ccn1 (stereo not drawn) [Compound 86, N-[3-fluoro-4-(2-methyl-4-pyridinyl)phenyl]-5,6-dihydro-8-[2-(trifluoromethyl)phenyl]-8H-[1,2,4]triazolo[5,1-c][1,4]oxazin-2-amine]
23 | 9.33 µM | 0.036 µM | – | – | Cc1cc(-c2ccc(Nc3nc4n(n3)CCOC4c3ccccc3Cl)cc2F)ccn1 (stereo not drawn) [Compound 88, 8-(2-chlorophenyl)-N-[3-fluoro-4-(2-methyl-4-pyridinyl)phenyl]-5,6-dihydro-8H-[1,2,4]triazolo[5,1-c][1,4]oxazin-2-amine]
24 | 9.12 µM | 0.032 µM | – | – | COc1cc(Nc2nc3n(n2)CCCC3c2ccc(C(F)(F)F)cc2)ccc1-c1ccnc(C)c1 (stereo not drawn) [Compound 89, 5,6,7,8-tetrahydro-N-[3-methoxy-4-(2-methyl-4-pyridinyl)phenyl]-8-[4-(trifluoromethyl)phenyl]-[1,2,4]triazolo[1,5-a]pyridin-2-amine]
